Values after ≈ are worked out from the molar mass of the structure shown. Like-named read-outs stand apart in the source and are kept apart here.

What all share (assay type): cell-based
Assay [1] deals with M. smegmatis.
In assay [2] the test system is M. bovis BCG. The assay is described as follows: microbe, parasite or virus in culture. The conditions noted are these: for FIC index: M. bovis BCG (Dubos), drug in combination with LysB, <0.5 indicates synergy; for MIC: Mycobacterium tuberculosis variant bovis BCG, BCG.
Assay [3] has as its system M. smegmatis. The assay is described as follows: Broth checkerboard MIC, synergy of LysB with anti-TB drugs. The conditions noted are these: for MIC: Mycolicibacterium smegmatis.

With `CO[C@H]1/C=C/O[C@@]2(C)Oc3c(C)c(O)c4c(O)c(c(/C=N/N5CCN(C)CC5)c(O)c4c3C2=O)NC(=O)/C(C)=C\C=C\[C@H](C)[C@H](O)[C@@H](C)[C@@H](O)[C@@H](C)[C@H](OC(C)=O)[C@@H]1C` [Rifampicin], the “Log10 CFU reduction” value in assay [1] was less than 1 Log10 CFU. In addition, in assay [2], the FIC index was 0.37 and the MIC came to 0.004 µg/mL (≈ 0.00486 µM). For the same compound, in assay [3], the FIC index worked out at 0.06 and the MIC amounted to 4 µg/mL.

For the compound `NNC(=O)c1ccncc1` [INH, Isoniazid], in assay [1] (M. smegmatis, 24 hrs, INH group), the “Log10 CFU reduction” value is recorded as less than 1 Log10 CFU. The FIC index in assay [2] was 0.47; in assay [3] it was 0.13. Moreover, the MIC in assay [2] turned out to be 0.03 µg/mL (≈ 0.219 µM); in assay [3], 8 µg/mL.

Consider `CC[C@@H](CO)NCCN[C@@H](CC)CO` [Ethambutol], for which the “Log10 CFU reduction” value in assay [1] (M. smegmatis, 24 hrs, Ethambutol group) is recorded as less than 1 Log10 CFU. In assay [2], the FIC index is recorded as 0.15 and the MIC is 16 µg/mL (≈ 78.3 µM). Moreover, in assay [3], the FIC index is 0.06 and the MIC stood at 2 µg/mL.

The record behind these values is patent US20170136102A1, “PHAGE-DERIVED COMPOSITIONS FOR IMPROVED MYC[…]” (priority 2014, published 2017).
